What was measured:
Rhesus PDE2A3 = Rhesus PDE2A3 (Macaca mulatta, UniProt B3VTJ2); assay: PDE2 fluorescence polarization (IMAP FP) inhibition assay, rhesus enzyme; format: biochemical, rhesus macaque; conditions: Rhesus PDE2, Lab B; read-out: Rhesus PDE2 Ki (nM) - Lab B
Outline: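 IMAP FP (mP from parallel and perpendicular fluorescence against substrate-only control) was read ≥1 h after adding binding reagent. The preceding 60 min room-temperature reaction contained FAM-cAMP (50 nM) and cGMP (1 uM) in pH 7.2 Tris buffer with MgCl2 and DTT. Enzyme was supernatant of sonicated AD293 cells expressing rhesus PDE2A3; compounds were 3-fold titrated, DMSO 1% final.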

human PDE2A1 = human PDE2A1 (Homo sapiens (Human), UniProt O00408); assay: IMAP FP PDE selectivity panel, human PDE2A1; format: biochemical; conditions: Human PDE2, Lab B; read-out: Human PDE2 Ki (nM) - Lab B
human PDE2A1, sequence (O00408 other isoform, or with tags, fused parts or gaps): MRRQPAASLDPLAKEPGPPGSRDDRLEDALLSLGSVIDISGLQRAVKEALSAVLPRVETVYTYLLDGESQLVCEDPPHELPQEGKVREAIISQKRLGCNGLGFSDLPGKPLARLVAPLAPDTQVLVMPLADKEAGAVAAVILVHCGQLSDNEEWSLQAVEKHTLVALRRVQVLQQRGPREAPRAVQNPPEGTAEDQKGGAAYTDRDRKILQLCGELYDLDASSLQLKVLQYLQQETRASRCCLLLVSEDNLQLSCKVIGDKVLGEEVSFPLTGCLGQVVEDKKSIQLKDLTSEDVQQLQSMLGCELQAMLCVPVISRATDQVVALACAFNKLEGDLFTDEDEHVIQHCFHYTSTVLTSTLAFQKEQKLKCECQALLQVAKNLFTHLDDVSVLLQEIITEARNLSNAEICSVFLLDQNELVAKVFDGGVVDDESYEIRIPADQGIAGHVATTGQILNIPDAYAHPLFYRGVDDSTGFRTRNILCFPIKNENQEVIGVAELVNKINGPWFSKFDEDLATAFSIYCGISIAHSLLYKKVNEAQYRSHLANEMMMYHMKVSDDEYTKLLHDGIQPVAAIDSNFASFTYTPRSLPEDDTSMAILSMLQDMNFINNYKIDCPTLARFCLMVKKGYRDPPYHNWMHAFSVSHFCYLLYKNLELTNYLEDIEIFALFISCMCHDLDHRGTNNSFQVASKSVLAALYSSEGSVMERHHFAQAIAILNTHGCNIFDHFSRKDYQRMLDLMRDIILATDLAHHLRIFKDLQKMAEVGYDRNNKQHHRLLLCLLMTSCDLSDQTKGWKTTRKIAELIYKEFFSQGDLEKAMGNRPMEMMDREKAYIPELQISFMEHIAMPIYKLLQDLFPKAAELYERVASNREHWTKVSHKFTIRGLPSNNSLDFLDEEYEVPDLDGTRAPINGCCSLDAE
Outline: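 IMAP FP format: substrate 50 nM FAM-cAMP plus 1000 nM cGMP, enzyme (insect-cell GST-tagged human PDE2A1) at ~20% conversion, 60 min reaction at room temperature. Apparent inhibition constants calculated from parallel/perpendicular fluorescence with KM 10,000 nM.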

Rhesus PDE2A3, sequence (B3VTJ2 1-941): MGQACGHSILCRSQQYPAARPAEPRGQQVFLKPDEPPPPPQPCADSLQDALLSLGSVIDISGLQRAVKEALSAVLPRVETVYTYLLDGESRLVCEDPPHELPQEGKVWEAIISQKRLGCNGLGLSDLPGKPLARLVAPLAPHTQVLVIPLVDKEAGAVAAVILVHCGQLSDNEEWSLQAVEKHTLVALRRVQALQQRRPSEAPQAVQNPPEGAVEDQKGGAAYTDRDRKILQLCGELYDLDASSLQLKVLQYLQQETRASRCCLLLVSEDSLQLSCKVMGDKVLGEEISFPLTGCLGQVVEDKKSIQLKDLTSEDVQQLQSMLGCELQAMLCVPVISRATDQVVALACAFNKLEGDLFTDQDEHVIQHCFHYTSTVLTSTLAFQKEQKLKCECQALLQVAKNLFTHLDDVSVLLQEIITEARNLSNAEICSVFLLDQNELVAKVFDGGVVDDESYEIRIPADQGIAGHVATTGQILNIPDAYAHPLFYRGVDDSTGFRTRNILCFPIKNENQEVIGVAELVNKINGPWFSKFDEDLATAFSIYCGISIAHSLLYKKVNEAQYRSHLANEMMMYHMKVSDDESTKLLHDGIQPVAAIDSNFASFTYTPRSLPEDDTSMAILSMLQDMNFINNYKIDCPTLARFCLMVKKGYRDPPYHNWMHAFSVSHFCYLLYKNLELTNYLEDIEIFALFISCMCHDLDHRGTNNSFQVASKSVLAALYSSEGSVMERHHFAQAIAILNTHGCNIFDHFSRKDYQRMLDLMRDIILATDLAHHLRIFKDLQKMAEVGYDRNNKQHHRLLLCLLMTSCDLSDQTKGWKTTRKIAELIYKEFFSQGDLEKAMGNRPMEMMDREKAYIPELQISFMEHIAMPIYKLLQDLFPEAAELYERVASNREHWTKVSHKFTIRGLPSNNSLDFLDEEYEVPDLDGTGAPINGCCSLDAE

Ki (Rhesus PDE2A3) [nM]	Ki (human PDE2A1) [nM]	SMILES
1.3	1.7	COc1ccc(Cc2nc(C(=O)N[C@@H](c3ccc(OC(F)(F)F)cc3)C(C)C)cc(=O)[nH]2)cc1F [Example 517, 2-(3-fluoro-4-methoxybenzyl)-N-{(1R)-2-methyl-1-[4-(trifluoromethoxy)phenyl]propyl}-6-oxo-1,6-dihydropyrimidine-4-carboxamide]
1.8	1.7	CC[C@@H](NC(=O)c1cc(=O)[nH]c(Cc2ccc(OC)c(F)c2)n1)c1ccc(SC(F)(F)F)cc1 [Example 518, 2-(3-fluoro-4-methoxybenzyl)-6-oxo-N-[(1R)-1-{4-[(trifluoromethyl)sulfanyl]phenyl}propyl]-1,6-dihydropyrimidine-4-carboxamide]
1.7	2	CC[C@@H](NC(=O)c1cc(=O)[nH]c(Cc2ccc(OC)c(F)c2)n1)c1ccc(SC(F)(F)F)c(F)c1 [Example 519, 2-(3-fluoro-4-methoxybenzyl)-N-[(1R)-1-{3-fluoro-4-[(trifluoromethyl)sulfanyl]phenyl}propyl]-6-oxo-1,6-dihydropyrimidine-4-carboxamide]
3.8	3.6	COc1ccc(Cc2nc(C(=O)N[C@@H](c3ccc(SC(F)(F)F)c(F)c3)C3CC3)cc(=O)[nH]2)cc1F [Example 520, N-[(R)-cyclopropyl{3-fluoro-4-[(trifluoromethyl)sulfanyl]phenyl}methyl]-2-(3-fluoro-4-methoxybenzyl)-6-oxo-1,6-dihydropyrimidine-4-carboxamide]
2.3	2.2	COc1ccc(Cc2nc(C(=O)N[C@@H](c3ccc(OC(F)(F)F)c(F)c3)C3CC3)cc(=O)[nH]2)cc1F [Example 521, N-{(R)-cyclopropyl[3-fluoro-4-(trifluoromethoxy)phenyl]methyl}-2-(3-fluoro-4-methoxybenzyl)-6-oxo-1,6-dihydropyrimidine-4-carboxamide]
2.9	2.6	COc1ccc(Cc2nc(C(=O)N[C@@H](c3ccc(C(F)(F)F)c(F)c3)C3CC3)cc(=O)[nH]2)cc1F [Example 522, N-{(R)-cyclopropyl[3-fluoro-4-(trifluoromethyl)phenyl]methyl}-2-(3-fluoro-4-methoxybenzyl)-6-oxo-1,6-dihydropyrimidine-4-carboxamide]
2.8	2.1	COc1ccc(Cc2nc(C(=O)N[C@@H](c3ccc(SC(F)(F)F)cc3)C3CC3)cc(=O)[nH]2)cc1F [Example 523, N-[(R)-cyclopropyl{4-[(trifluoromethyl)sulfanyl]phenyl}methyl]-2-(3-fluoro-4-methoxybenzyl)-6-oxo-1,6-dihydropyrimidine-4-carboxamide]
2.1	2.1	COc1ccc(Cc2nc(C(=O)N[C@@H](c3ccc(OC(F)(F)F)cc3)C3CC3)cc(=O)[nH]2)cc1F [Example 524, N-{(R)-cyclopropyl[4-(trifluoromethoxy)phenyl]methyl}-2-(3-fluoro-4-methoxybenzyl)-6-oxo-1,6-dihydropyrimidine-4-carboxamide]
2.3	1.9	COc1ccc(Cc2nc(C(=O)N[C@@H](c3ccc(C(F)(F)F)cc3)C3CC3)cc(=O)[nH]2)cc1F [Example 525, N-{(R)-cyclopropyl[4-(trifluoromethyl)phenyl]methyl}-2-(3-fluoro-4-methoxybenzyl)-6-oxo-1,6-dihydropyrimidine-4-carboxamide]
4.1	3.9	CC[C@@H](NC(=O)c1cc(=O)[nH]c(Cc2ccc(OC)c(F)c2)n1)c1ccc(S(F)(F)(F)(F)F)cc1 [Example 526, 2-(3-fluoro-4-methoxybenzyl)-6-oxo-N-{(1R)-1-[4-(pentafluoro-λ^6-sulfanyl)phenyl]propyl}-1,6-dihydropyrimidine-4-carboxamide]
3.1	3	CC[C@@H](NC(=O)c1cc(=O)[nH]c(Cc2ccc(OC)c(F)c2)n1)c1ccc(C(F)(F)F)c(F)c1 [Example 527, 2-(3-fluoro-4-methoxybenzyl)-N-{(1R)-1-[3-fluoro-4-(trifluoromethyl)phenyl]propyl}-6-oxo-1,6-dihydropyrimidine-4-carboxamide]
1.2	1.1	CC[C@@H](NC(=O)c1cc(=O)[nH]c(Cc2ccc(OC)c(F)c2)n1)c1ccc(OC(F)(F)F)c(F)c1 [Example 528, 2-(3-fluoro-4-methoxybenzyl)-N-{(1R)-1-[3-fluoro-4-(trifluoromethoxy)phenyl]propyl}-6-oxo-1,6-dihydropyrimidine-4-carboxamide]
2.2	2	CC[C@@H](NC(=O)c1cc(=O)[nH]c(Cc2ccc(OC)c(F)c2)n1)c1ccc(OC(F)(F)F)cc1 [Example 529, 2-(3-fluoro-4-methoxybenzyl)-6-oxo-N-{(1R)-1-[4-(trifluoromethoxy)phenyl]propyl}-1,6-dihydropyrimidine-4-carboxamide]
47	28	Cc1nc(C(=O)N[C@H](C)c2ccc(C3(C)CC3)cc2)cc(=O)[nH]1 [Example 530, 2-methyl-N-{(1R)-1-[4-(1-methylcyclopropyl)phenyl]ethyl}-6-oxo-1,6-dihydropyrimidine-4-carboxamide]
11	10	Cc1nc(C(=O)NC(C)(C)c2ccc(C(F)(F)F)cc2Cl)cc(=O)[nH]1 [Example 593, N-{1-[2-chloro-4-(trifluoromethyl)phenyl]-1-methylethyl}-2-methyl-6-oxo-1,6-dihydropyrimidine-4-carboxamide]
30	22	Cc1nc(C(=O)NC(C)(C)c2ccc(C(F)(F)F)cc2F)cc(=O)[nH]1 [Example 596, N-{1-[2-fluoro-4-(trifluoromethyl)phenyl]-1-methylethyl}-2-methyl-6-oxo-1,6-dihydropyrimidine-4-carboxamide]
8	8.2	CCc1nc(C(=O)NC2(c3ccc(C(F)(F)F)c(F)c3)CC2)cc(=O)[nH]1 [Example 601, 2-ethyl-N-{1-[3-fluoro-4-(trifluoromethyl)phenyl]cyclopropyl}-6-oxo-1,6-dihydropyrimidine-4-carboxamide]
5.2	4.2	CCc1nc(C(=O)NC2(c3ccc(OC(F)(F)F)c(F)c3)CC2)cc(=O)[nH]1 [Example 602]
68	70	Cc1nc(C(=O)N[C@@H](c2ccc(OC(F)F)cc2)C2CC2)cc(=O)[nH]1 [Example 610, N-{(R)-cyclopropyl[4-(difluoromethoxy)phenyl]methyl}-2-methyl-6-oxo-1,6-dihydropyrimidine-4-carboxamide]
44	37	Cc1nc(C(=O)N[C@@H](c2ccc(OC(F)F)cc2)C(C)C)cc(=O)[nH]1 [Example 611, N-{(1R)-1-[4-(difluoromethoxy)phenyl]-2-methylpropyl}-2-methyl-6-oxo-1,6-dihydropyrimidine-4-carboxamide]
11	11	Cc1nc(C(=O)N[C@@H](c2ccc(C(F)(F)F)cc2)C2(C)CC2)cc(=O)[nH]1 [Example 612, 2-methyl-N-{(R)-(1-methylcyclopropyl)[4-(trifluoromethyl)phenyl]methyl}-6-oxo-1,6-dihydropyrimidine-4-carboxamide]

— patent US9815796B2 (Merck Sharp & Dohme Corp., priority 2013, dated 2017)
